Structures can show the parent of a compound that is named as a salt.
How the values were obtained:
[1] = Determination of the hygroscopicity of the crystalline salts (weight variation and Karl Fischer in humidity chamber); type: physicochemical; conditions: for KF (t = 0): Karl Fischer value at the beginning of the study; for KF (t = 6 days): Karl Fischer value at the end of the study, 6 days in humidity chamber; for hygroscopicity according to the scale: class by % incorporation of water; for Δ % weigth 24 h / Δ % weigth 48 h / Δ % weigth 6 days: humidity chamber, 64% relative humidity, 25±2° C.
Description: The objective was to measure the hygroscopicity of the salts of the present invention, and comparing it with the one of the known salt of each counter part of the salts. The increasing of the weight will be measured in order to evaluate the incorporation of water in the samples, together with the Karl Fischer factor.
According to “Technical guide for the elaboration of monographs” special issue PharmaEuropa, 3rd ed., December 1999, the hygroscopicity is defined based on the augmentation of weight after 24 hours of exposition to 80% of relative humidity at 25° C. The scale is the following:
Methods: • Preparation of the Humidity chamber: A supersaturated solution of sodium nitrite (45 g/50 ml) is prepared and introduced in a humidification chamber (samplaterecord). The chamber is maintained at a temperature of 25±2° C. during 24 hours before use, and humidity is controlled each day. […] 102.2 mg of sodium naproxen. • The samples are introduced in the conditioned humidity chamber, and the weight is controlled after 24 hours, 48 hours, and 6 days, till an equilibrium is reached (2 successive control with a variation of weight less than 0.2 mg). • The Karl Fischer is also determined (using a Methrom 756 KF) at the beginning and at the end of the study.
The variation of the weight is controlled and the following percentage is calculated: Δ% weigth=(Pn−P1)/P1×100 wherein: P1 is the initial weight, Pn is the weight measured for the sample.

[2] = system: TNBS-induced colonic hypersensitivity; experiment: TNBS-induced colonic hypersensitivity (visceral pain model, colonic distension); type: in vivo, Male Sprague-Dawley rats; conditions: rats, day 7 after TNBS, 5 mg/kg orally, FIG. 12
Description: The effect of the salts of the present invention on pain is measured in a model of visceral pain well known in the art: the TNBS-induced colonic hypersensitivity. In this model, the injection of trinitrobenzene sulfonic acid (TNBS) into the proximal colon provoke chronic colonic hypersensitivity, measured in conscious rats by a decreased pain threshold in response to colonic distension.
The animals are Male Sprague-Dawley rats (360-400 g, France). They were housed in a temperature (19.5° C. 24.5° C.) and relative humidity (45%-65%) controlled room with a 12 h—light/dark cycle, with ad libitum access to standard pelleted laboratory chow and water throughout the study.
Fasted (24 hours) animals were undergoing surgery for administration of TNBS (50 mg/kg) into the proximal part of the colon. […]
Day 7 after TNBS injection: Compounds were administered and the colonic hypersensitivity due to TNBS-induced colonic inflammation was measured before the treatment, and at t=20, 45, 90 and 120 min after treatment. […]
The 95% confidence intervals of each of the arithmetic means were also calculated.
Statistical significance between the treated groups and the vehicle-treated group was determined by a two-way repeated measures ANOVA followed, when F-value is significant, by an appropriate post-hoc comparison (Bonferroni's test) using SigmaStat software.

Row | Compound | KF (t = 0) [1] | KF (t = 6 days) [1] | hygroscopicity according to the scale [1] | Δ % weigth 24 h [1] [%] | Δ % weigth 48 h [1] [%] | Δ % weigth 6 days [1] [%] | colonic threshold (pain threshold to colonic distension) ([2]; 20-120 min after treatment) | anti-hypersensitive effect compared with the corresponding combination (Combo-02) [2]
1 | COc1ccc2cc([C@H](C)C(=O)[O-])ccc2c1.[Na+] [sodium naproxen] | 1.04 | 12.65 | hygroscopic | 14.39 | 14.39 | 14.3 | – | –
2 | (R,R)-Tramadol-(S)-Naproxene Salt [Example 2] | – | – | – | – | – | – | nearly recovering the same level of colonic threshold than the naive animal | superior effect
3 | COc1cccc(C2(O)CCCCC2CN(C)C)c1 (centres unmarked) [tramadol hydrochloride] | 0.45 | 0.23 | slightly hygroscopic | 0.19 | 0.26 | 0.18 | – | –

From patent US8168679B2, “Salts of Tramadol and Naproxen and their crystal forms in the treatment of pain” (Laboratorios del Dr. Esteve, S.A., priority 2007, dated 2012)
